“Also recorded” adds a separate entry of the source. Like-named read-outs stand apart in the source and are kept apart here.
Key:
[1] = test system: HLA-A1-restricted VMM15 CTL; experiment: 4-hour chromium release assay, peptide-pulsed C1R-A1 targets with VMM15 CTL; format: cell-based, human; details: for CTL recognition compared with the wild-type peptide: alanine or serine substituted peptides, FIG. 8; for reconstitution of an epitope for VMM15 CTL / recognition by VMM15 CTL: C1R-A1 cells pulsed with synthetic peptide at 0.1 to 10 uM, FIG. 3; for recognition by VMM15 CTL in peptide screening: screen of tyrosinase peptides matching the HLA-A1 motif, one experiment with 48 peptides; for recognition of peptide-pulsed C1R-A1 cells in dose-titration assay: HPLC-purified peptides, FIG. 7
VMM12 CTL = experiment: 4-hour chromium release assay, peptide-pulsed C1R-A1 targets with VMM12 CTL; format: cell-based, human; details: C1R-A1 cells pulsed with peptide at 1 to 0.01 μM; FIG. 4
VMM15 CTL = experiment: Cold target inhibition assay with VMM15 CTL; format: cell-based, human; details: for inhibition of lysis of labeled peptide-pulsed targets by unlabeled targets pulsed with the peptide: VMM15 EBV targets pulsed at 20 μg/ml, effector-to-labeled target ratio 10:1, FIG. 9
Description: FIG. 9. […] (SEQ ID NO:73) for recognition by VMM15 CTL. […] (SEQ ID NO:79), or no peptide, as indicated. Increasing numbers of these various unlabeled targets were pre-incubated with VMM15 CTL for 1 hour at 37° C. Labeled (hot) targets were then added for an additional 4 hour co-culture at a final effector-to-labeled target ratio of 10:1.
(SEQ ID NO:19), and because of the similar dose-titration curves observed for CTL recognition (FIG. […] (SEQ ID NO:19)) of both peptides adopt a similar conformation when bound to HLA-A1. A cold target inhibition assay was performed with peptide-pulsed target cells to test that hypothesis.

H-Y specific CTL = details: cited from earlier work
[2] = C1R-A1 targets, E:T 25:1, FIG. 8A, read-out: half-maximal lysis, nonamer

**Q.** Which EC50 ([1]; C1R-A1 targets, E:T 10:1, FIG. 8B, read-out: half-maximal lysis, dodecamer) does the source give for “DAEKADICTDEY [dodecamer with alanine replacing the cysteine at position 5]” here?
**A.** ~100 nM

**Q.** And the “CTL recognition compared with the wild-type peptide” value [1]?
**A.** significantly greater recognition

**Q.** With “DAEKCDIATDEY [dodecamer with alanine substituted for the cysteine at position 8]” as the sequence, how does the “CTL recognition compared with the wild-type peptide” value [1] read?
**A.** prevented recognition at every concentration tested

**Q.** Which “reconstitution of an epitope for VMM12 CTL” value (VMM12 CTL) does the source give for DAEKCDICTDEY here?
**A.** reconstituted an epitope for these VMM12 CTL, although weakly

**Q.** And the “reconstitution of an epitope for VMM15 CTL / recognition by VMM15 CTL” value [1]?
**A.** recognized; also recorded: reconstituted

**Q.** What about the EC50 ([1]; C1R-A1 targets, E:T 10:1, FIG. 8B, read-out: half-maximal sensitization of target cells for lysis, dodecamer) of the same sequence?
**A.** 10000 nM

**Q.** What about the “recognition by VMM15 CTL in peptide screening” value [1] of the same sequence?
**A.** recognized

**Q.** What about the “inhibition of lysis of peptide-pulsed targets by cold wild-type VMM15 tumor cells” value (VMM15 CTL; targets pulsed with peptide at 50 μg/ml) of the same sequence?
**A.** can be inhibited

**Q.** With “DAEKSDICTDEY [dodecamer with serine replacing the more N-terminal cysteine]” as the sequence, how does the “inhibition of lysis of labeled peptide-pulsed targets by unlabeled targets pulsed with the peptide” value (VMM15 CTL) read?
**A.** competes

**Q.** With EKCDICTDEY as the sequence, how does the “reconstitution of an epitope for VMM15 CTL / recognition by VMM15 CTL” value [1] read?
**A.** recognized; also recorded: reconstituted

**Q.** What about the “recognition of peptide-pulsed C1R-A1 cells in dose-titration assay” value ([1]; E:T 25:1) of the same sequence?
**A.** equally reactive

**Q.** And the “recognition by VMM15 CTL in peptide screening” value [1]?
**A.** recognized

**Q.** For FIDSYICQV, which “effect of cysteinylation of the cysteine on recognition” value (H-Y specific CTL) is on record?
**A.** improving recognition by one clone, and reducing recognition by another

**Q.** Which EC50 [1, 2] does the source give for “KADICTDEY [nonamer with alanine replacing the cysteine at position 2]” here?
**A.** 20 nM

**Q.** What about the “CTL recognition compared with the wild-type peptide” value [1] of the same sequence?
**A.** significantly greater recognition

**Q.** With “KCDIATDEY [nonamer with alanine substituted for the cysteine distal to the N-terminus]” as the sequence, how does the “CTL recognition compared with the wild-type peptide” value [1] read?
**A.** not discernibly more effective than the wild-type peptide

**Q.** Which results are given for KCDICTDEY?
**A.** reconstitution of an epitope for VMM15 CTL / recognition by VMM15 CTL [1]: reconstitutes an epitope for VMM15 CTL; also recorded: most effective; also recorded: reconstituted; half-maximal lysis ([1]; Example A1-1): approximately 1 ug/ml; EC50 ([1]; Example A1-1, read-out: half-maximal lysis): ~1000 nM; recognition of peptide-pulsed C1R-A1 cells in dose-titration assay ([1]; E:T 25:1): equally reactive; recognition by VMM15 CTL in peptide screening [1]: recognized

**Q.** Which “CTL recognition compared with the wild-type peptide” value [1] does the source give for “KCDISTDEY [nonamer with serine substituted for the cysteine distal to the N-terminus]” here?
**A.** not discernibly more effective than the wild-type peptide

**Q.** Which EC50 [1, 2] does the source give for “KSDICTDEY [nonamer with serine replacing the cysteine at position 2]” here?
**A.** 2 nM

**Q.** What about the “CTL recognition compared with the wild-type peptide” value [1] of the same sequence?
**A.** significantly greater recognition

**Q.** What about the “inhibition of lysis of labeled peptide-pulsed targets by unlabeled targets pulsed with the peptide” value (VMM15 CTL) of the same sequence?
**A.** similarly inhibited

Source: patent US6558671B1, “Cysteine-depleted peptides recognized by A3-restricted cytotoxic lymphocytes, and uses therefor” (The University of Virginia Patent Foundation, priority 1997, dated 2003)
